Laboratory results taken from patent US6664231B1, “Anti-fungal peptides” (priority 1993, dated 2003).
Square brackets hold non-standard residues; d marks the D form. Peptide text beside a SMILES is read from it. Phe(4-NH2) = Nc1ccc(C[C@H](N)C(=O)O)cc1; 1Nal = N[C@@H](Cc1cccc2ccccc12)C(=O)O; 2Nal = N[C@@H](Cc1ccc2ccccc2c1)C(=O)O; Abu = CC[C@H](N)C(=O)O; Sar = CNCC(=O)O

test system: C. albicans (CA-1, Strain SLU-1); experiment: Radial diffusion assay; format: cell-based, Candida albicans; details: HPLC-purified peptide; nanomoles required to achieve a net 30 mm^2 zone (log titration curve)
Procedure, shortened: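 Peptides, serially diluted 2-fold in D-PBS (top ~1 mg/mL), diffused 3 h at 37° C into pH 7.4 phosphate-buffered agarose seeded with 1×10^6 CFU/mL yeast, before overnight growth under a 6% Sabouraud overlayer. Net inhibition zones measured after Coomassie staining; PROBIT fit of log pmol vs area gave pmol for 30 mm^2.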

Row | Molecule | Plate Assay (nmol), pure peptide activity
1 | H-KWLIQLFH-NH2 [Peptide 302] | 2.07 nmol
2 | H-KWLIQL-NH2 [compound 315] | >12.853 nmol

same assay, conditions: crude peptide; nanomoles required to achieve a net 30 mm^2 zone (log titration curve)

Row | Molecule | Plate Assay (nmol), crude peptide activity
3 | H-KVKWLI-NH2 [compound 313] | >11.05 nmol
4 | H-SKVKWLIQLFHK-NH2 [Peptide 285] | >3.024 nmol
5 | H-KWLIQLFH-NH2 [Peptide 302] | >5.497 nmol
6 | H-KWLIQL-NH2 [compound 315] | >5.069 nmol

same assay, conditions: pmoles of peptide added to well to achieve a 30 mm^2 zone, PROBIT analysis; crude or purified (P′) peptide

Row | Molecule | C. albicans pmol/30 mm^2 zone
7 | CC[C@H](C)[C@H](NC(=O)[C@H](CC(C)C)NC(=O)CN(C)C(=O)CNC(=O)[C@@H](NC(=O)[C@H](CCCCN)NC(=O)[C@H](CO)NC(=O)[C@@H](N)CCCCN)C(C)C)C(=O)N[C@@H](CCC(N)=O)C(=O)N[C@@H](CC(C)C)C(=O)N[C@@H](Cc1ccccc1)C(=O)N[C@@H](Cc1c[nH]cn1)C(=O)N[C@@H](CCCCN)C(=O)N[C@@H](CCCCN)C(N)=O [XMP.259] (H-KSKVG[Sar]LIQLFHKK-NH2) | 2,117 pmol/30 mm^2 zone
8 | H-SKVKWLIQLF-NH2 [XMP.290] | >2,233 pmol/30 mm^2 zone
9 | H-KSKVGWLIQLFHKW-NH2 [XMP.108] | >3219 pmol/30 mm^2 zone
10 | H-KSKVKWLIQLWHKK-NH2 [XMP.124] | 351 pmol/30 mm^2 zone
11 | H-KSKVGWLIQLFLKK-NH2 [XMP.87] | >1536 pmol/30 mm^2 zone
12 | H-KVKWLIQ-NH2 [XMP.306] | >10,485 pmol/30 mm^2 zone
13 | H-VKWLIQ-NH2 [XMP.314] | >13,497 pmol/30 mm^2 zone
14 | H-KSKVGWLIQLFWKK-NH2 [XMP.107] | >2796 pmol/30 mm^2 zone
15 | H-KAKVGWLIQLFHKK-NH2 [XMP.32] | 294 pmol/30 mm^2 zone
16 | CC[C@H](C)[C@H](NC(=O)[C@H](CC(C)C)NC(=O)[C@H](Cc1ccc2ccccc2c1)NC(=O)CNC(=O)[C@@H](NC(=O)[C@H](CCCCN)NC(=O)[C@H](CO)NC(=O)[C@@H](N)CCCCN)C(C)C)C(=O)N[C@@H](CCC(N)=O)C(=O)N[C@@H](CC(C)C)C(=O)N[C@@H](Cc1ccccc1)C(=O)N[C@@H](Cc1c[nH]cn1)C(=O)N[C@@H](CCCCN)C(=O)N[C@@H](CCCCN)C(N)=O [XMP.130] (H-KSKVG[2Nal]LIQLFHKK-NH2) | 1159 pmol/30 mm^2 zone
17 | H-KSKVKFLIKLFHKK-NH2 [XMP.283] | 1,336 pmol/30 mm^2 zone
18 | H-SVHVHISKSKVGWLIQLFHKKIESALRNK-NH2 [XMP.12] | >2099 pmol/30 mm^2 zone
19 | H-VKWLIQL-NH2 [XMP.307] | >8,345 pmol/30 mm^2 zone
20 | H-KVKWLIQLFHK-NH2 [XMP.288] | >3,062 pmol/30 mm^2 zone
21 | H-KSKVGWLIQLFHKKKSKVGWLIQLFHKK-NH2 [XMP.29] | >1469 pmol/30 mm^2 zone
22 | CC[C@H](C)[C@H](NC(=O)[C@H](CC(C)C)NC(=O)[C@H](Cc1c[nH]c2ccccc12)NC(=O)[C@H](Cc1ccc(N)cc1)NC(=O)[C@@H](NC(=O)[C@H](CCCCN)NC(=O)[C@H](CO)NC(=O)[C@@H](N)CCCCN)C(C)C)C(=O)N[C@@H](CCC(N)=O)C(=O)N[C@@H](CC(C)C)C(=O)N[C@@H](Cc1c[nH]c2ccccc12)C(=O)N[C@@H](Cc1c[nH]cn1)C(=O)N[C@@H](CCCCN)C(=O)N[C@@H](CCCCN)C(N)=O [XMP.240] (H-KSKV[Phe(4-NH2)]WLIQLWHKK-NH2) | >2,802 pmol/30 mm^2 zone

Row | Molecule | C. albicans pmol/30 mm^2 zone
23 | CC[C@H](C)[C@H](NC(=O)[C@H](CC(C)C)NC(=O)[C@H](Cc1cccc2ccccc12)NC(=O)CNC(=O)[C@@H](NC(=O)[C@H](CCCCN)NC(=O)[C@H](CO)NC(=O)[C@@H](N)CCCCN)C(C)C)C(=O)N[C@@H](Cc1ccc(N)cc1)C(=O)N[C@@H](CC(C)C)C(=O)N[C@@H](Cc1ccccc1)C(=O)N[C@@H](Cc1c[nH]cn1)C(=O)N[C@@H](CCCCN)C(=O)N[C@@H](CCCCN)C(N)=O [XMP.224] (H-KSKVG[1Nal]LI[Phe(4-NH2)]LFHKK-NH2) | >2,443 pmol/30 mm^2 zone
24 | H-KSKVGWLIQLFHKKKSKVGWLIFLFHKK-NH2 [XMP.274] | >2,457 pmol/30 mm^2 zone
25 | H-SKVKWL-NH2 [XMP.312] | >11,120 pmol/30 mm^2 zone
26 | CC[C@H](C)[C@H](NC(=O)[C@H](CC(C)C)NC(=O)[C@H](Cc1c[nH]c2ccccc12)NC(=O)CNC(=O)[C@@H](NC(=O)[C@H](CCCCN)NC(=O)[C@H](CO)NC(=O)[C@@H](N)CCCCN)C(C)C)C(=O)N[C@@H](Cc1ccc(N)cc1)C(=O)N[C@@H](Cc1cccc2ccccc12)C(=O)N[C@@H](Cc1ccccc1)C(=O)N[C@@H](Cc1c[nH]cn1)C(=O)N[C@@H](CCCCN)C(=O)N[C@@H](CCCCN)C(N)=O [XMP.235] (H-KSKVGWLI[Phe(4-NH2)][1Nal]FHKK-NH2) | b (No detectable activity up to 5 μg/well)
27 | XMP.392: 150-161, P @ 152 (G) (SEQ ID NO:223) (KVPWLIQLFHKK) | 569 pmol/30 mm^2 zone
28 | H-KSKVGILIQLFHKK-NH2 [XMP.251] | 1,289 pmol/30 mm^2 zone
29 | H-KSKVGWLIQLFAKK-NH2 [XMP.42] | 548 pmol/30 mm^2 zone
30 | XMP.382: K - K - L - L - Q - L - L - K - K (SEQ ID NO:213) (KKLLQLLKK) | 1,437 pmol/30 mm^2 zone
31 | CC[C@H](C)[C@H](NC(=O)[C@H](CC(C)C)NC(=O)[C@@H](C)NC(=O)CNC(=O)[C@@H](NC(=O)[C@H](CCCCN)NC(=O)[C@H](CO)NC(=O)[C@@H](N)CCCCN)C(C)C)C(=O)N[C@@H](CCC(N)=O)C(=O)N[C@@H](CC(C)C)C(=O)N[C@@H](Cc1ccccc1)C(=O)N[C@@H](Cc1c[nH]cn1)C(=O)N[C@@H](CCCCN)C(=O)N[C@@H](CCCCN)C(N)=O [XMP.252] (H-KSKVG[dA]LIQLFHKK-NH2) | 1,613 pmol/30 mm^2 zone
32 | H-KSKVGWLIQLFHKKKSKVGWLILLFHKK-NH2 [XMP.271] | >1,995 pmol/30 mm^2 zone
33 | H-KSKVGWLIFLFHKKKSKVGWLIQLFHKK-NH2 [XMP.273] | >2,120 pmol/30 mm^2 zone
34 | H-KSKVWLIQLFHKK-NH2 [XMP.11] | 645 pmol/30 mm^2 zone
35 | H-KWLIQLFH-NH2 [XMP.302] | >5,497 pmol/30 mm^2 zone
36 | CC[C@H](NC(=O)CNC(=O)[C@@H](NC(=O)[C@H](CCCCN)NC(=O)[C@H](CO)NC(=O)[C@@H](N)CCCCN)C(C)C)C(=O)N[C@@H](CC(C)C)C(=O)N[C@H](C(=O)N[C@@H](CCC(N)=O)C(=O)N[C@@H](CC(C)C)C(=O)N[C@@H](Cc1ccccc1)C(=O)N[C@@H](Cc1c[nH]cn1)C(=O)N[C@@H](CCCCN)C(=O)N[C@@H](CCCCN)C(N)=O)[C@@H](C)CC [XMP.255] (H-KSKVG[Abu]LIQLFHKK-NH2) | 392 pmol/30 mm^2 zone
37 | H-SKVKWLIQ-NH2 [XMP.299] | >8,768 pmol/30 mm^2 zone

same assay, conditions: pmoles of peptide added to well to achieve a 30 mm^2 zone, PROBIT analysis; crude or purified (P′) peptide; listed as XMP.288P′

Row | Molecule | C. albicans pmol/30 mm^2 zone
38 | H-KVKWLIQLFHK-NH2 [XMP.288] | 279 pmol/30 mm^2 zone

same assay, conditions: pmoles of peptide added to well to achieve a 30 mm^2 zone, PROBIT analysis; crude or purified (P′) peptide; listed as XMP.302P′

Row | Molecule | C. albicans pmol/30 mm^2 zone
39 | H-KWLIQLFH-NH2 [XMP.302] | 2,070 pmol/30 mm^2 zone
